Test results reported in patent US20140094482A1, “BENZAZOCINE-RING COMPOUND INHIBITION OF TAU HYPERPHOSPHORYLATION” (priority 2012, published 2014).
pIC50: −log10 of the molar value. Where “and” joins values, the source holds several entries; their conditions need not be identical. Identical values can stand only once. Entries after “also recorded” stand apart in the source; their conditions may differ. Like-named read-outs stand apart in the source and are kept apart here.

Tests used:
[1] = target: FLNA pentapeptide of SEQ ID NO: 1 (Bn-VAKGL) (Homo sapiens, UniProt P21333); experiment: FITC-NLX-based FLNA screening assay (inhibition of FITC-naloxone binding to Bn-VAKGL); conditions: for inhibition at 0.01 µM: read-out: Percent inhibition of FITC-NLX binding, 0.01 μM compound; for inhibition at 0.1 µM: read-out: Percent inhibition of FITC-NLX binding, 0.1 μM compound
[2] = target: kappa-opioid receptor (Homo sapiens, UniProt P41145); conditions: cited from earlier work
kappa-opioid receptor, sequence (P41145 whole entry): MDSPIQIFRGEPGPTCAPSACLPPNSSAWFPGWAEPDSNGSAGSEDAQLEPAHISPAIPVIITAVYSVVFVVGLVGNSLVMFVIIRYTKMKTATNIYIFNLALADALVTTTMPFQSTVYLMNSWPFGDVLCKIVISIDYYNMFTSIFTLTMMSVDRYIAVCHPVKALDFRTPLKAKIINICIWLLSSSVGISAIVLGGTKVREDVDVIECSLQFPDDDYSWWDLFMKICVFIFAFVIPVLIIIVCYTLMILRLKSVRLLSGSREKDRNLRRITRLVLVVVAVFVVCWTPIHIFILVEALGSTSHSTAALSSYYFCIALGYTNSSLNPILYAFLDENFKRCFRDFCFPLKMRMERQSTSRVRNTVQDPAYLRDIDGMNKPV

[3] = tested on: ERK2; experiment: Aβ42-induced ERK2 activation (pERK2) in synaptosomes; type: biochemical, rat; conditions: 0.1 and 1 nM, simultaneous treatment
Method: FIG. 3, in two panels as FIG. 3A and FIG. 3B, illustrates that FLNA-binding compounds reduce Aβ-induced α7nAChR-mediated ERK2 signaling. In the same treated synaptosomes used in FIG. 2, levels of phosphorylated (activated) ERK2 (pERK2) were measured in immunoprecipitates of ERK2. Aβ42 strongly activated extracellular signal-regulated kinase 2 [ERK2; also known as mitogen-activated protein kinase 1 (MAPK1)], and all compounds studied reduced this activation with 10-minutes of pretreatment. […] Immunoprecipitates were determined by Western blotting (FIG. 3A) and quantified by densitometry (FIG. 3B). n=3. Data are means±SEM. […] vs. Aβ42 alone. Hatching is as in FIG. 2.
(§1) Synaptosomes were exposed to 100 nM Aβ42 for 30 minutes, and with […] compounds added either simultaneously or 10 minutes earlier. Controls were a vehicle (no Aβ42) and an Aβ42 alone condition.
To assess Aβ42 signaling via α7nAChR after compound administration, levels of phosphorylated ERK2 were measured in the same synaptosome preparations treated with Aβ42 and the above compounds using Western blots (FIG. 3A). Phosphorylation of ERK2 indicates its activation, which leads to tau hyperphosphorylation. Compared to the control condition, Aβ42 strongly activates ERK2. This activation is suppressed by all six compounds at 0.1 and 1 nM with 10 minute pretreatment, and also by Compound B0055 and (+)NLX with simultaneous treatment (FIG. 3B).

[4] = target: T1, α7nAChR-FLNA complex (Rattus norvegicus, UniProt A0A8I5ZV49); experiment: Aβ42-induced α7nAChR-FLNA association in frontal cortical synaptosomes (anti-FLNA immunoprecipitation, Western blot); type: biochemical; conditions: compound simultaneous with 100 nM Aβ42; vs Aβ42 alone
T1 construct: from tissue; host or cells: rat frontal cortex synaptosomes
Method: FIG. 2, in two panels as FIG. 2A and FIG. 2B, illustrates high-affinity FLNA-binding compounds reduce α7nAChR-FLNA association as shown by Western blots. Frontal cortical synaptosomes from 2-month-old rats (n=4) were treated with 0.1 or 1 nM concentrations of potential FLNA-binding compounds [A0040, A0068, B0055, C0137M, C0138M and (+)-naloxone (+NLX)] either simultaneously (Sim) with or 10 minutes prior (10′ pr) to Aβ42 and were analyzed for their α7nAChR-FLNA complex contents. The α7nAChR-FLNA complexes in the solubilized synaptosomes were immunoprecipitated with immobilized anti-FLNA and the α7nAChR and FLNA levels in the anti-FLNA immunoprecipitates determined by Western blotting FIG. 2A and quantified by densitometry (FIG. 2B). n=3. Data are means±SEM. […] vs. Aβ42 alone. Data for 0.1 nM simultaneous admixture are shown in diagonal hatching; data from 1 nM simultaneous admixture are shown in cross-hatching; data from 0.1 nM 10 minutes prior to Aβ42 are shown in horizontal hatching; and data from 1 nM admixture 10 minutes prior Aβ42 are shown with vertical hatching. The letter designation “M” that accompanies many of the “C-series” compounds is omitted from FIG. 2, the remaining figures and most discussions of the figures and compounds hereinafter for ease in expression. […]

[5] = target: delta-opioid receptor (Homo sapiens, UniProt P41143); conditions: cited from earlier work
delta-opioid receptor, sequence (P41143 whole entry): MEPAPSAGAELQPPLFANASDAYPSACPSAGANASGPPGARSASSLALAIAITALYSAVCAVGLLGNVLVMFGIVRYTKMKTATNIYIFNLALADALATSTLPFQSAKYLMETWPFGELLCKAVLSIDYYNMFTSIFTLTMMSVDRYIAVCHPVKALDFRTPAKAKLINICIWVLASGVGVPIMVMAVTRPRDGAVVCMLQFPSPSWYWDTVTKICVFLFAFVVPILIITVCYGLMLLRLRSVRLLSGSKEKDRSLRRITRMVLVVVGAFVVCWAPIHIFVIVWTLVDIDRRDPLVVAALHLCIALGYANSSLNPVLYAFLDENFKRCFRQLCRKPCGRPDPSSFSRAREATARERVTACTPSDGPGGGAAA

[6] = target: T2, FLNA (Homo sapiens, UniProt P21333); experiment: Inhibition of FITC-NLX binding to FLNA in membranes of A7 cells; conditions: for pIC50: FITC-NLX in place of [3H]NLX
T2 construct: rather than the full protein from a cell membrane preparation; host or cells: A7 cells (membranes)
T2 sequence (P21333 whole entry): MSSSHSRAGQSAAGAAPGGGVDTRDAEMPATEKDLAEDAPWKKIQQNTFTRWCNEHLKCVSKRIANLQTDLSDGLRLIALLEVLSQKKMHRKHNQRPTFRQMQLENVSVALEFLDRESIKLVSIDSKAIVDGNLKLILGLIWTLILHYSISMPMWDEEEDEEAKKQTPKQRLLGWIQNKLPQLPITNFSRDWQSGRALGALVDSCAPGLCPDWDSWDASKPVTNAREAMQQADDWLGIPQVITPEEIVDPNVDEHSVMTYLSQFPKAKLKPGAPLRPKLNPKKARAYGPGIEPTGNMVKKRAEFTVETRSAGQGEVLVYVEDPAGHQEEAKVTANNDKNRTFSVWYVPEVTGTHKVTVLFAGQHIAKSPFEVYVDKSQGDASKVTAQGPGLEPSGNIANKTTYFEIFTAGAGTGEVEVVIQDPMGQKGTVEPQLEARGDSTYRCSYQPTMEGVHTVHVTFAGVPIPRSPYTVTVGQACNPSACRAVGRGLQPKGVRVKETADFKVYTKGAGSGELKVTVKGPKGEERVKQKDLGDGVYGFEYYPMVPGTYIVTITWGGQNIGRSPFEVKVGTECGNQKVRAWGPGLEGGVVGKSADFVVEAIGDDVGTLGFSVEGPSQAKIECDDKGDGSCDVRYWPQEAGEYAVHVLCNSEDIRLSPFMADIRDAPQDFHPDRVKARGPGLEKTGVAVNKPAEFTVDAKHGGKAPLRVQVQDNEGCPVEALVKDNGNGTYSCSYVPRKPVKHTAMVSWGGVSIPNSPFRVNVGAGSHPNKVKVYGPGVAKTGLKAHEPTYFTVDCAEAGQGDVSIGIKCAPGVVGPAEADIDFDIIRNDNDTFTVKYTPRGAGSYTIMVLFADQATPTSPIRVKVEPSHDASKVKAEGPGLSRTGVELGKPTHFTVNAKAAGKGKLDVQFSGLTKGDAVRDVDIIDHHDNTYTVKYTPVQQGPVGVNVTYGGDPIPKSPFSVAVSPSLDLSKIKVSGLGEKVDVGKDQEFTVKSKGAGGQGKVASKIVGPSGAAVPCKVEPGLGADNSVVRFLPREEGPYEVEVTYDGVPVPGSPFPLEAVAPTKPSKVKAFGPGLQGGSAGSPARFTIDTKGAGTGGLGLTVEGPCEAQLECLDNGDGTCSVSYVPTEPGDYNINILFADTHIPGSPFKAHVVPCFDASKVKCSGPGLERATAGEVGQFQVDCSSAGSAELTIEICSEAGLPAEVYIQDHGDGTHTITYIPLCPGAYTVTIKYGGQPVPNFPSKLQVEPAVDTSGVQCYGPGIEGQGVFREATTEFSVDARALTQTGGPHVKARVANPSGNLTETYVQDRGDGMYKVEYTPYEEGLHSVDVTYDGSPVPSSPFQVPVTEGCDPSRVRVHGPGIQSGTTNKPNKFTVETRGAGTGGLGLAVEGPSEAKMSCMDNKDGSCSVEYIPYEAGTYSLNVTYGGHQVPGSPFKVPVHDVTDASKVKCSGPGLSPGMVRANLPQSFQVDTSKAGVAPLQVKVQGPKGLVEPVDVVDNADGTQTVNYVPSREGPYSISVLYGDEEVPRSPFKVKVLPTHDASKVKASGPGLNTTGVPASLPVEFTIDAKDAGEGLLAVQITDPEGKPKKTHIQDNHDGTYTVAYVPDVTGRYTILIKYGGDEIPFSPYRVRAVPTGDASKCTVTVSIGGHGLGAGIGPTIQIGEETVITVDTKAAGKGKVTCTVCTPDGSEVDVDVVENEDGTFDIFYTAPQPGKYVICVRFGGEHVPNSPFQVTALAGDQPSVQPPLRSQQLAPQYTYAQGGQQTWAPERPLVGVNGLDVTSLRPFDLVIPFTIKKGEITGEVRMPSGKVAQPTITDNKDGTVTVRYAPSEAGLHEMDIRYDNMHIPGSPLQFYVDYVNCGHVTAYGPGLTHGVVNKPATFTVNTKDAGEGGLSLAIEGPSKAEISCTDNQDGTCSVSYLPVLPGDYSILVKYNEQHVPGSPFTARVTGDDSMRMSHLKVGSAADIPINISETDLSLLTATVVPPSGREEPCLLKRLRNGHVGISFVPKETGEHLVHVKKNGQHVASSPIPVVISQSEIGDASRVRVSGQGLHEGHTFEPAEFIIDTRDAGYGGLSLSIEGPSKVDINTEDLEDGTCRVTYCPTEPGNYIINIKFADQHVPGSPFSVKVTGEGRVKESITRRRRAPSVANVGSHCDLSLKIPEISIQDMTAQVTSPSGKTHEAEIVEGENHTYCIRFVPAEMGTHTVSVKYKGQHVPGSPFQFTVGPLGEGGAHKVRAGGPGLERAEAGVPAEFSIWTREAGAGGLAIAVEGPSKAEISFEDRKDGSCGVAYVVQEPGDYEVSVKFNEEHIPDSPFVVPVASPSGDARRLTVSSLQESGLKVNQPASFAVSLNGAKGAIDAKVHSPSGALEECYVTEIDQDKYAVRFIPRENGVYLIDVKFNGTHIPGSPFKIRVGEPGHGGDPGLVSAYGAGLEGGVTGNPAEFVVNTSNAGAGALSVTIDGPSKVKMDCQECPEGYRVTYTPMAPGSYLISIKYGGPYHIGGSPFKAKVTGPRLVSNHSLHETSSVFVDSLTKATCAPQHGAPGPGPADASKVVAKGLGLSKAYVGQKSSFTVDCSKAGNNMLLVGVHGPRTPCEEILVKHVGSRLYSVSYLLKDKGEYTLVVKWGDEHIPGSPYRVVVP
Excerpt: 3(2):e1554 (2008), FIG. 3. FIG. 1B is a similar plot obtained from the use of FITC-labeled NLX (FITC-NLX) in place of the radio-labeled material.

[7] = target: T2, FLNA; conditions: [3H]NLX binding, A7 cell membranes, Wang et al. 2008/2009, cited from earlier work
[8] = target: T2, FLNA; experiment: Inhibition of [3H]NLX binding to membranes from FLNA-expressing A7 cells; conditions: for pIC50: [3H]NLX binding, A7 cell membranes, Example 3, six studies, two-site fit
[9] = target: mu opioid receptor (MOR) (Homo sapiens, UniProt P35372); conditions: cited from earlier work
mu opioid receptor (MOR), sequence (P35372 whole entry, species assumed): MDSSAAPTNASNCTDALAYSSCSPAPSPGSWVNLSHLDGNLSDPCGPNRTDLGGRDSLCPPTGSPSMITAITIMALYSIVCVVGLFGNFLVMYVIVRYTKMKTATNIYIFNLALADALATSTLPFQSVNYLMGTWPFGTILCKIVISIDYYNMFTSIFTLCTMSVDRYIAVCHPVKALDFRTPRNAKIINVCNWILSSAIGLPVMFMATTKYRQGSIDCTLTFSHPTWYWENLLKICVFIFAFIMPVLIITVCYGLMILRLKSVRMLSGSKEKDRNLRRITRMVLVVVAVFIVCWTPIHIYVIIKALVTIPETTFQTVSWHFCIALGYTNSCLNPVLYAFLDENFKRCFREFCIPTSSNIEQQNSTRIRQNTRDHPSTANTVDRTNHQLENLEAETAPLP

[10] = tested on: tau protein; experiment: Aβ42-induced tau phosphorylation at S202, T231 and T181 in synaptosomes; type: biochemical, rat
Method: FIG. 4, in four panels as FIG. 4A, FIG. 4B, FIG. 4C and FIG. 4D, illustrate that FLNA-binding compounds reduce tau phosphorylation at all three hyperphosphorylation sites. […] The three phosphoepitopes of tau were detected in immunoprecipitates using specific antibodies in Western blots. […] Immunoprecipitates were determined by Western blotting (FIG. 4A) and quantified by densitometry (FIG. 4B, FIG. 4C and FIG. 4D). Data are means±SEM. […] vs. Aβ42 alone. Hatching is as in FIG. 2.
as §1
Next assessed was whether the FLNA-binding compounds also decrease hyperphosphorylation of tau, a downstream effect of Aβ42 binding to α7nAChR and ERK2 activation. The three primary phosphorylation sites on tau protein were examined for their phosphorylation levels compared to total tau protein content using Western blots (FIG. 4A). Tau, phosphorylated at these three sites, is a constituent of NFTs.

[11] = read-out: Percent Inhibition, 1 μM compound (n = 5)
[12] = read-out: Percent inhibition of FITC-NLX binding, 1 μM compound, 10 nM FITC-NLX
[13] = read-out: inhibition of binding of FITC-labeled NLX, 1 μM compound, 10 nM FITC-NLX, n=5, FIG. 11
[14] = read-out: inhibition of binding of FITC-labeled NLX

Oc1ccc2c3c1O[C@H]1[C@H](O)CC[C@@]4(O)[C@@H](C2)N(CC2CC2)CC[C@]314 [6-β-Naltrexol]
Percent Inhibition ([1]; 1 µM): 50.5%
Percent Inhibition ([1]; 10 µM): 64.8%

Oc1ccc2c(c1)[C@@]13CCCC[C@@]1(O)[C@@H](C2)N(CC1CCC1)CC3 [Butorphanol]
RECEPTOR KAPPA: antagonism/agonism and relative potency [2]: +++

COc1c2c(cc3c1C(CC(=O)Cc1ccccc1F)[N+](C)(C)CC3)OCO2 (stereo not drawn) [Compound B0055]
Aβ42-induced ERK2 activation (pERK2) [3]: suppressed; also recorded: reduced the activation at both concentrations
α7nAChR-FLNA association [4]: markedly reduced

CN1CC[C@]23CCCC[C@H]2[C@H]1Cc1ccc(O)cc13 [Levorphanol]
inhibition at 1 µM ([1]; read-out: Percent Inhibition): 46.8%
inhibition at 10 µM ([1]; read-out: Percent Inhibition): 69.4%

Oc1ccc2c3c1O[C@H]1[C@@H](O)CC[C@@]4(O)[C@@H](C2)N(CC2CCC2)CC[C@]314 [Nalbuphine]
binding to the FLNA pentapeptide of SEQ ID NO: 1 (in words) [1]: bind well
inhibition at 1 µM ([1]; read-out: Percent Inhibition): 65.4%
inhibition at 10 µM ([1]; read-out: Percent Inhibition): 76.2%

C=C1CC[C@@]2(O)[C@H]3Cc4ccc(O)c5c4[C@@]2(CCN3CC2CC2)[C@H]1O5 [Nalmefene]
inhibition at 1 µM ([1]; read-out: Percent Inhibition): 44.5%
inhibition at 10 µM ([1]; read-out: Percent Inhibition): 66.9%

C=CCN1CC[C@]23c4c5ccc(O)c4O[C@H]2[C@@H](O)C=C[C@H]3[C@H]1C5 [Nalorphine]
RECEPTOR KAPPA: antagonism/agonism and relative potency [2]: +
binding to the FLNA pentapeptide of SEQ ID NO: 1 (in words) [1]: bind well
inhibition at 1 µM ([1]; read-out: Percent Inhibition): 58.7%
inhibition at 10 µM ([1]; read-out: Percent Inhibition): 60.2%

C=CCN1CC[C@]23c4c5ccc(O)c4O[C@H]2/C(=N/NC(=O)c2ccccc2)CC[C@@]3(O)[C@H]1C5 [Naloxone Benzoylhydrazone]
RECEPTOR KAPPA: antagonism/agonism and relative potency [2]: −
RECEPTOR DELTA: antagonism/agonism and relative potency [5]: −

C=CCN1CC[C@]23c4c5ccc(O)c4O[C@H]2C(=O)CC[C@@]3(O)[C@H]1C5 [Naloxone]
binding to the FLNA pentapeptide of SEQ ID NO: 1 (in words) [1]: bind well
Percent inhibition of FITC-NLX binding ([1]; 0.01 μM compound, 10 nM FITC-NLX, listed as (−)NLX): 41.9% and 34.3% and 41.4% and 42.50%
Percent inhibition of FITC-NLX binding ([1]; 0.1 μM compound, 10 nM FITC-NLX, listed as (−)NLX): 48.6% and 38.5% and 47.2% and 54.20%
Percent inhibition of FITC-NLX binding ([1]; 1 μM compound, 10 nM FITC-NLX, listed as (−)NLX): 51.5% and 45.8% and 50.2% and 56.20%
inhibition at 1 µM [1, 11]: 71.6%
inhibition at 0.01 µM ([1]; 10 nM FITC-NLX): 43%
inhibition at 0.1 µM ([1]; 10 nM FITC-NLX): 50.3%
inhibition at 1 µM [1, 12]: 53.9%
inhibition at 1 µM [1, 13]: ~75%

O=C1CC[C@@]2(O)[C@H]3Cc4ccc(O)c5c4[C@@]2(CCN3CC2CC2)[C@H]1O5 [Naltrexone]
pIC50 ([6]; read-out: IC50-H (high)): 11.79
pIC50 ([6]; read-out: IC50-L (low)): 7.73
affinity difference between the high- and low-affinity binding sites ([6]; FITC-NLX label): ~12.000 fold
pIC50 ([7]; read-out: IC50-H (high affinity site)): 11.40
pIC50 ([7]; read-out: IC50-L (lower affinity site)): 9.08
pIC50 ([8]; IC50-L (low)): 9.08
pIC50 ([8]; read-out: IC50-H (high)): 11.40
affinity difference between the high- and low-affinity binding sites ([8]; [3H]NLX label): about 200 fold
binding to the FLNA pentapeptide of SEQ ID NO: 1 (in words) [1]: bind well
Percent inhibition of FITC-NLX binding ([1]; 0.01 μM compound, 10 nM FITC-NLX, listed as NTX): 37.9% and 34.8% and 38.5%
Percent inhibition of FITC-NLX binding ([1]; 0.1 μM compound, 10 nM FITC-NLX, listed as NTX): 46.5% and 45.2% and 43.3%
Percent inhibition of FITC-NLX binding ([1]; 1 μM compound, 10 nM FITC-NLX, listed as NTX): 55.4% and 51.6% and 48.0%
inhibition at 1 µM [1, 11]: 76.4%
inhibition at 0.01 µM ([1]; 10 nM FITC-NLX): 40.2%
inhibition at 0.1 µM ([1]; 10 nM FITC-NLX): 47.4%
inhibition at 1 µM [1, 12]: 49.1%
inhibition at 1 µM [1, 13]: ~75%

Oc1ccc2c3c1O[C@H]1c4[nH]c5ccccc5c4C[C@@]4(O)[C@@H](C2)N(CC2CC2)CC[C@]314 [Naltrindole]
RECEPTOR KAPPA: antagonism/agonism and relative potency [2]: −
RECEPTOR MU: antagonism/agonism and relative potency [9]: −
inhibition at 1 µM ([1]; read-out: Percent Inhibition): 41%
inhibition at 10 µM ([1]; read-out: Percent Inhibition): 65%

CN1CC[C@]23c4c5ccc(O)c4O[C@H]2[C@@H](O)C=C[C@H]3[C@H]1C5 [morphine]
binding to the FLNA pentapeptide of SEQ ID NO: 1 (in words) [1]: do not bind well
inhibition at 10 µM [1, 14]: 25 to 50%

Oc1ccc2c3c1O[C@H]1c4[nH]c5c(c4C[C@@]4(O)C(C2)N(CC2CC2)CC[C@]314)C[C@@]1(O)[C@H]2Cc3ccc(O)c4c3[C@@]1(CCN2CC1CC1)[C@H]5O4 [nor-Binaltrophimine]
RECEPTOR DELTA: antagonism/agonism and relative potency [5]: −

COc1ccc2c3c1O[C@H]1C(=O)CC[C@@]4(O)[C@@H](C2)N(C)CC[C@]314 [oxycodone]
binding to the FLNA pentapeptide of SEQ ID NO: 1 (in words) [1]: do not bind well
inhibition at 10 µM [1, 14]: 25 to 50%

COC(=O)/C=C/C(=O)N[C@@H]1CC[C@@]2(O)[C@H]3Cc4ccc(O)c5c4[C@@]2(CCN3CC2CC2)[C@H]1O5 [β-Funaltrexamine]
Percent Inhibition ([1]; 1 µM): 49.8%
Percent Inhibition ([1]; 10 µM): 69.4%

(+)-naloxone [(+)NLX]
Aβ42-induced hyperphosphorylation of tau at all three sites ([10]; FIG. 4D, timing not specified): particularly decreased
Aβ42-induced tau phosphorylation at S202, T231 and T181 ([10]; simultaneous administration, both concentrations): reduced tau phosphorylation
Aβ42-induced ERK2 activation (pERK2) [3]: suppressed
Aβ42-induced ERK2 activation (pERK2) ([3]; listed as (+)-naloxone): reduced the activation at both concentrations
α7nAChR-FLNA association [4]: markedly reduced
